Test results reported in the supplement of paper PMC13380429.

Legend:
Details in all cases: 72 h
HepG2 [1] = assay: cell viability relative to DMSO; higher = less toxic
Caco-2 [2] = assay: as above
Calu-3 [3] = assay: as above
U2OS [4] = assay: as above
Vero E6 [5] = assay: as above
HepG2 [6] = assay: drug sensitivity score (DSS) for viability; higher = more toxic; extreme values may be limits of the assay
Caco-2 [7] = assay: as above
Calu-3 [8] = assay: as above
U2OS [9] = assay: as above
Vero E6 [10] = assay: as above
HepG2 [11] = assay: relative viability EC50 (midpoint between 100% and the lowest measured viability); higher = less toxic
Caco-2 [12] = assay: as above
Calu-3 [13] = assay: as above
U2OS [14] = assay: as above
Vero E6 [15] = assay: as above

Row | Structure (SMILES) | cell viability (HepG2 [1]; 1 nM) | cell viability (HepG2 [1]; 10 nM) | cell viability (HepG2 [1]; 100 nM) | cell viability (HepG2 [1]; 1000 nM) | cell viability (HepG2 [1]; 10000 nM) | cell viability (Caco-2 [2]; 1 nM) | cell viability (Caco-2 [2]; 10 nM) | cell viability (Caco-2 [2]; 100 nM) | cell viability (Caco-2 [2]; 1000 nM) | cell viability (Caco-2 [2]; 10000 nM) | cell viability (Calu-3 [3]; 1 nM) | cell viability (Calu-3 [3]; 10 nM) | cell viability (Calu-3 [3]; 100 nM) | cell viability (Calu-3 [3]; 1000 nM) | cell viability (Calu-3 [3]; 10000 nM) | cell viability (U2OS [4]; 1 nM) | cell viability (U2OS [4]; 10 nM) | cell viability (U2OS [4]; 100 nM) | cell viability (U2OS [4]; 1000 nM) | cell viability (U2OS [4]; 10000 nM) | cell viability (Vero E6 [5]; 1 nM) | cell viability (Vero E6 [5]; 10 nM) | cell viability (Vero E6 [5]; 100 nM) | cell viability (Vero E6 [5]; 1000 nM) | cell viability (Vero E6 [5]; 10000 nM) | drug sensitivity score (HepG2 [6]) | drug sensitivity score (Caco-2 [7]) | drug sensitivity score (Calu-3 [8]) | drug sensitivity score (U2OS [9]) | drug sensitivity score (Vero E6 [10]) | relative viability EC50 (HepG2 [11]) | relative viability EC50 (Caco-2 [12]) | relative viability EC50 (Calu-3 [13]) | relative viability EC50 (U2OS [14]) | relative viability EC50 (Vero E6 [15])
1 | C[n+]1c2cc(N)ccc2cc2ccc(N)cc21.Nc1ccc2cc3ccc(N)cc3nc2c1 [acriflavine] | 91.6% | 95.3% | 88.9% | 29.2% | 0.7% | 91.9% | 101% | 93.6% | 65.2% | 19.2% | 103% | 93.1% | 102% | 73% | 15.4% | 98.1% | 100% | 96.6% | 95.8% | 0% | 97% | 100% | 98.8% | 95.1% | 2.8% | 14.9 | 8.5 | 8.6 | 6.1 | 6.1 | 0.49 µM | 1.17 µM | 1.35 µM | 2.85 µM | 2.77 µM
2 | C=C1/C(=C\C=C2/CCC[C@]3(C)[C@@H]([C@H](C)CCCC(O)(C(F)(F)F)C(F)(F)F)CC[C@@H]23)C[C@@H](O)C[C@@H]1O [falecalcitriol] | 98.1% | 97% | 94.1% | 102% | 92.9% | 96.2% | 96.1% | 90.6% | 95.6% | 92.6% | 122% | 99.3% | 95.7% | 99.7% | 98.2% | 100% | 94.9% | 98.5% | 92.7% | 93.1% | 92.4% | 96.2% | 85.8% | 94.9% | 104% | 0 | 0 | 0 | 0 | 0 | > 10 µM | > 10 µM | > 10 µM | > 10 µM | > 10 µM
3 | COc1ccnc(C[S+]([O-])c2nc3cc(OC(F)F)ccc3[nH]2)c1OC (stereo not given) [pantoprazole] | 106% | 107% | 111% | 99.2% | 117% | 99.5% | 104% | 98.7% | 103% | 89.4% | 99% | 99.1% | 98.4% | 95.9% | 94.8% | 109% | 105% | 102% | 101% | 99.3% | 95.4% | 97.1% | 91.7% | 91% | 99.2% | 0 | 0 | 0 | 0 | 0 | > 10 µM | > 10 µM | > 10 µM | > 10 µM | > 10 µM
4 | CC(C)(C)c1ccc(S(=O)(=O)NCc2ccc(C(=O)Nc3cccnc3)cc2)cc1 [STF-31] | 105% | 103% | 106% | 76.5% | 16.9% | 96.7% | 99.3% | 96.2% | 89.6% | 5.5% | 90.7% | 96.3% | 100% | 106% | 7.7% | 103% | 98.8% | 106% | 28.8% | 0.2% | 103% | 102% | 106% | 101% | 2.9% | 8.1 | 7 | 4.7 | 13.6 | 5.4 | 1.45 µM | 2.26 µM | 3.48 µM | 0.698 µM | 3.2 µM
5 | Cc1cc(C(N)=O)ccc1-n1c(CCC(=O)O)ccc1-c1ccc(-n2ccnc2)cc1 [N6022] | 104% | 89.6% | 111% | 107% | 104% | 91.8% | 99.5% | 100% | 104% | 100% | 99.1% | 98.5% | 93.9% | 95.5% | 101% | 96.7% | 103% | 97.7% | 101% | 97.2% | 99.3% | 96.5% | 94.8% | 94% | 106% | 0 | 0 | 0 | 0 | 0 | > 10 µM | > 10 µM | > 10 µM | > 10 µM | > 10 µM
6 | N=C(NCCC[C@H](N)C(=O)O)N[N+](=O)[O-] [NG-nitro-arginine] | 96.7% | 101% | 95.2% | 101% | 95.2% | 92.7% | 88.8% | 106% | 84.2% | 89.4% | 93.5% | 106% | 91.7% | 93.7% | 94.6% | 104% | 95.6% | 101% | 93.2% | 97.9% | 104% | 101% | 103% | 101% | 92.8% | 0 | 0 | 0 | 0 | 0 | > 10 µM | > 10 µM | > 10 µM | > 10 µM | > 10 µM
7 | COc1cc2c(c(OC)c1OC)-c1c(cc3c(c1OC)OCO3)CC(C)C(C)C2 (stereo not given) [schisandrin-B] | 89.1% | 99.3% | 95.8% | 105% | 101% | 97.5% | 99.5% | 98.9% | 100% | 77.4% | 96.3% | 83.3% | 94.5% | 105% | 90.1% | 101% | 91.8% | 102% | 97.3% | 93.5% | 96% | 98.5% | 93.4% | 96.1% | 101% | 0 | 0.8 | 0 | 0 | 0 | > 10 µM | > 10 µM | > 10 µM | > 10 µM | > 10 µM
8 | O=C(NC(=O)c1c(F)cccc1Cl)NC1c2ccccc2-c2ccccc21 [TMN-355] | 97.4% | 103% | 101% | 109% | 108% | 93.1% | 93.7% | 86.8% | 92.1% | 104% | 88% | 93.9% | 108% | 91.7% | 97.6% | 97.4% | 99.9% | 96.9% | 94.2% | 102% | 100% | 91.9% | 104% | 98.4% | 106% | 0 | 0 | 0 | 0 | 0 | > 10 µM | > 10 µM | > 10 µM | > 10 µM | > 10 µM
9 | C1CCC(NC2CCCCC2)CC1 [dicyclohexylamine] | 99% | 104% | 97.5% | 111% | 104% | 98.7% | 104% | 94.6% | 106% | 94.1% | 96.6% | 99% | 87.8% | 97.8% | 98% | 99.2% | 99.5% | 99.4% | 104% | 97.7% | 99.1% | 96.3% | 97.3% | 100% | 97.5% | 0 | 0 | 0 | 0 | 0 | > 10 µM | > 10 µM | > 10 µM | > 10 µM | > 10 µM
10 | COc1ccc(CCN(C)CCCN2CCc3cc(OC)c(OC)cc3CC2=O)cc1OC [zatebradine] | 105% | 99.4% | 100% | 103% | 97.7% | 97.2% | 90.5% | 92.9% | 99.6% | 94.4% | 97% | 100% | 92.9% | 105% | 94.2% | 101% | 94.5% | 99.1% | 97.6% | 97.6% | 94.1% | 98.4% | 93.4% | 96% | 88% | 0 | 0 | 0 | 0 | 0 | > 10 µM | > 10 µM | > 10 µM | > 10 µM | > 10 µM
